The values below are quoted from earlier work in patent publication US20250312353A1, “DRUG R[…] TREATMENT OF […] MALFORMATIONS” (University of South Carolina, priority 2024, published 2025).

Series [1] has as its system human lung tumor associated endothelial cell. To be noted: on matrigel; even in the presence of VEGF.
The subject of series [2] is host macrophage. Conditions: bacterial infection.

SMILES strings stand for the structures.

Turning to `COc1nc2ccc(Br)cc2cc1[C@@H](c1ccccc1)[C@@](O)(CCN(C)C)c1cccc2ccccc12` [bedaquiline], in series [1], the “effect on capillary network formation” value is reported as “inhibit capillary network formation”. The “effect on host macrophage innate immune resistance” value in series [2] is on record as “activate host macrophage innate immune resistance to bacterial infection”.
